Reference: ChEMBL document CHEMBL1201862, “PubChem BioAssay data set” (2004)
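Compound exposure: 48 hours, 5 concentrations, 96-well plates. Abbreviation: GI50, concentration required for 50% inhibition of growth.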 Active and inactive are the calls of the source. Rule as the data show it: active = GI50 up to about 1.1 µM and inactive = higher.

Experiments:
Assay in all cases: NCI-60 cell line screen, 48 h
[1] = test system: CAKI-1
[2] = test system: NCI-H23
[3] = test system: HOP-92
[4] = test system: SK-MEL-28
[5] = test system: SK-MEL-5
[6] = test system: IGROV-1
[7] = test system: CCRF-CEM
[8] = test system: A549
[9] = test system: MCF7
[10] = test system: HCC 2998
[11] = test system: SF-539
[12] = test system: SK-OV-3
[13] = test system: SR
[14] = test system: NCI-H460
[15] = test system: OVCAR-5
[16] = test system: K562
[17] = test system: SNB-75
[18] = test system: EKVX
[19] = test system: ACHN
[20] = test system: MDA-MB-435

Measured: GI50

CCSC1=N/C(=C/c2ccccc2O)C(=O)N1
inactive: [1] > 100 µM | [2] > 100 µM | [3] 89.1 µM | [4] > 100 µM | [5] > 100 µM | [6] 87.3 µM | [7] > 100 µM | [8] > 100 µM | [9] > 100 µM | [10] > 100 µM | [11] 20.7 µM | [12] 31.7 µM | [13] 63 µM | [14] > 100 µM | [15] > 100 µM | [16] 61 µM | [17] 25.1 µM | [18] > 100 µM | [19] 39.2 µM | [20] > 100 µM

CSc1nc2c(c(=O)[nH]1)N=C(c1ccccc1)CC(c1ccccc1)N2 (stereo not given)
inactive: [1] 32.1 µM | [2] 31.3 µM | [3] 41.5 µM | [4] 50.6 µM | [5] 28.1 µM | [6] 23.4 µM | [7] 26.1 µM | [8] 32.1 µM | [9] 12.3 µM | [10] 29.3 µM | [11] 23.2 µM | [12] 33.6 µM | [13] 21.1 µM | [14] 13.4 µM | [15] 31.3 µM | [16] 23.4 µM | [17] 11.7 µM | [18] 32.1 µM | [19] 25.6 µM | [20] 40.7 µM

Cc1ccc2c(O)cc(-c3ccc(Cl)cc3)nc2n1
inactive: [1] 5.57 µM | [2] 27.2 µM | [3] 13.6 µM | [4] 9.66 µM | [5] 3.47 µM | [6] 5.69 µM | [7] 7.52 µM | [8] 2.73 µM | [9] 3.35 µM | [10] 6.65 µM | [11] 5.16 µM | [12] 6.64 µM | [13] 4.33 µM | [14] 3.69 µM | [15] > 39.3 µM | [16] 2.58 µM | [17] 8.24 µM | [18] 18 µM | [19] 8.07 µM | [20] 1.32 µM
